What was measured:
Assay in all cases: relative viability (nuclei count vs DMSO), 5 days (fraction); higher = more cells survive
IMD-0354 + AZD7762 = compound: O=C(Nc1cc(C(F)(F)F)cc(C(F)(F)F)c1)c1cc(Cl)ccc1O [IMD-0354] + NC(=O)Nc1cc(-c2cccc(F)c2)sc1C(=O)N[C@H]1CCCNC1 [AZD7762] (partner 0.2 µM)
Summary of the method: (§1)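 Values are medians from duplicate plates. Each reflects relative viability, defined as the nuclei count of treated wells over that of vehicle wells. Lung cancer cell lines in 1536-well plates were pin-tool dosed one day after seeding with one drug alone or with a fixed anchor-drug dose plus five library-drug doses (not always all listed) in √10 steps, then fixed, stained and imaged at 4× after 5 days.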

IMD-0354 + Phenformin = compound: O=C(Nc1cc(C(F)(F)F)cc(C(F)(F)F)c1)c1cc(Cl)ccc1O [IMD-0354] + N=C(N)NC(=N)NCCc1ccccc1 [Phenformin] (partner 250 µM)
Summary of the method: as §1

CX-5461 + Bortezomib = compound: Cc1cnc(CNC(=O)c2c(=O)c3ccc(N4CCCN(C)CC4)nc3n3c2sc2ccccc23)cn1 [CX-5461] + CC(C)C[C@H](NC(=O)[C@H](Cc1ccccc1)NC(=O)c1cnccn1)B(O)O [Bortezomib] (partner 0.002 µM)
Summary of the method: as §1

CX-5461 + Vorinostat = compound: Cc1cnc(CNC(=O)c2c(=O)c3ccc(N4CCCN(C)CC4)nc3n3c2sc2ccccc23)cn1 [CX-5461] + O=C(CCCCCCC(=O)Nc1ccccc1)NO [Vorinostat] (partner 1 µM)
Summary of the method: as §1

| Cell Line | relative viability (IMD-0354 + AZD7762; first compound 0.04 µM) | relative viability (IMD-0354 + AZD7762; first compound 0.1265 µM) | relative viability (IMD-0354 + AZD7762; first compound 0.4 µM) | relative viability (IMD-0354 + AZD7762; first compound 1.265 µM) | relative viability (IMD-0354 + AZD7762; first compound 4 µM) | relative viability (IMD-0354 + Phenformin; first compound 0.04 µM) | relative viability (IMD-0354 + Phenformin; first compound 0.1265 µM) | relative viability (IMD-0354 + Phenformin; first compound 0.4 µM) | relative viability (IMD-0354 + Phenformin; first compound 1.265 µM) | relative viability (IMD-0354 + Phenformin; first compound 4 µM) | relative viability (CX-5461 + Bortezomib; first compound 0.01 µM) | relative viability (CX-5461 + Bortezomib; first compound 0.03162 µM) | relative viability (CX-5461 + Bortezomib; first compound 0.1 µM) | relative viability (CX-5461 + Bortezomib; first compound 0.3162 µM) | relative viability (CX-5461 + Bortezomib; first compound 1 µM) | relative viability (CX-5461 + Vorinostat; first compound 0.01 µM) | relative viability (CX-5461 + Vorinostat; first compound 0.03162 µM) | relative viability (CX-5461 + Vorinostat; first compound 0.1 µM) | relative viability (CX-5461 + Vorinostat; first compound 0.3162 µM) | relative viability (CX-5461 + Vorinostat; first compound 1 µM) |
| --- | --- | --- | --- | --- | --- | --- | --- | --- | --- | --- | --- | --- | --- | --- | --- | --- | --- | --- | --- | --- |
| HCC-44 | 0.988 | 1.01 | 1.01 | 0.855 | 0.314 | 0.241 | 0.32 | 0.193 | 0.139 | 0.105 | 0.898 | 0.973 | 0.844 | 0.838 | 0.807 | 1.17 | 1.16 | 1.03 | 1.13 | 1.03 |
| HCC-827 | 0.204 | 0.239 | 0.215 | 0.183 | 0.153 | 0.411 | 0.353 | 0.228 | 0.178 | 0.174 | 1.01 | 1.06 | 1.02 | 1.06 | 0.997 | 0.854 | 0.887 | 0.85 | 0.567 | 0.923 |
| NCI-H1623 | – | – | – | – | – | 0.565 | 0.621 | 0.459 | 0.364 | 0.385 | – | – | – | – | – | – | – | – | – | – |
| NCI-H2347 | 0.829 | 0.838 | 0.617 | 0.281 | 0.345 | 0.396 | 0.381 | 0.272 | 0.149 | 0.218 | 1.06 | 1.21 | 0.836 | 0.854 | 0.941 | 0.457 | 0.608 | 0.512 | 0.552 | 0.501 |
| PC-14 | 0.424 | 0.391 | 0.145 | 0.128 | 0.108 | 0.817 | 0.59 | 0.221 | 0.107 | 0.112 | 1.02 | 0.918 | 1.03 | 0.837 | 0.944 | 0.65 | 0.797 | 0.533 | 0.527 | 0.106 |
| NCI-H1651 | 0.468 | 0.504 | 0.422 | 0.161 | 0.14 | 0.35 | 0.22 | 0.198 | 0.106 | 0.0771 | 0.899 | 0.896 | 0.816 | 0.969 | 0.404 | 0.55 | 0.552 | 0.546 | 0.566 | 0.194 |
| HARA | 0.281 | 0.357 | 0.38 | 0.177 | 0.141 | 0.422 | 0.47 | 0.154 | 0.0947 | 0.0925 | 1.01 | 1.28 | 1.13 | 1.06 | 0.809 | 0.516 | 0.568 | 0.485 | – | 0.476 |
| NCI-H1650 | – | – | – | – | – | 0.46 | 0.396 | 0.304 | 0.174 | 0.209 | 0.202 | 0.191 | – | 0.19 | 0.175 | 0.619 | 0.466 | 0.33 | 0.61 | 0.261 |
| NCI-H1793 | 0.592 | 0.542 | 0.337 | 0.181 | 0.205 | 0.386 | 0.344 | 0.157 | 0.163 | 0.147 | – | – | – | – | – | 0.894 | 0.927 | 0.786 | 0.367 | 0.645 |
| SK-LU-1 | – | – | – | – | – | 0.713 | 0.413 | 0.303 | 0.193 | 0.187 | – | 1.15 | 1.05 | 0.518 | 0.761 | 0.826 | 0.721 | 0.777 | 0.777 | 0.538 |
| LU99A | 0.246 | 0.393 | 0.332 | 0.185 | 0.151 | 0.529 | 0.826 | 0.417 | 0.218 | 0.265 | 1.1 | 1.02 | 0.977 | 0.868 | 0.417 | 0.529 | 0.544 | 0.377 | 0.323 | 0.215 |
| NCI-H1355 | 0.813 | 0.914 | 0.622 | 0.494 | 0.23 | 0.437 | 0.415 | 0.432 | 0.24 | 0.236 | 1.2 | 1.19 | 1.12 | 1.28 | 0.877 | 0.711 | 0.736 | 0.625 | 0.432 | 0.43 |
| HCC-78 | 0.783 | 0.658 | 0.543 | 0.672 | 0.485 | 0.667 | 0.697 | 0.398 | 0.439 | 0.292 | 0.434 | 0.485 | 0.548 | 0.498 | 0.428 | 0.405 | 0.477 | 0.459 | 0.402 | 0.42 |
| NCI-H1563 | – | – | – | – | – | 0.688 | 0.622 | 0.53 | 0.329 | 0.37 | 0.894 | 0.788 | 0.632 | 0.742 | 0.499 | – | – | – | – | – |
| HCC-15 | 1.07 | 1.13 | 0.923 | 0.648 | 0.157 | 0.466 | 0.37 | 0.188 | 0.0833 | 0.165 | 1.04 | 1.16 | 1.02 | 1.03 | 0.731 | 0.926 | 0.882 | 0.818 | 0.834 | 0.768 |
| EKVX | 0.741 | 0.625 | – | 0.328 | 0.21 | 0.254 | 0.234 | 0.196 | 0.106 | 0.132 | 1.29 | 1.04 | 1.01 | – | 0.838 | 0.738 | 0.815 | 0.758 | 0.726 | 0.784 |
| NCI-H2087 | 1.6 | 1.07 | 0.637 | 0.235 | 0.392 | 0.481 | 0.258 | 0.206 | 0.119 | 0.128 | 0.812 | 0.884 | 0.781 | 1.07 | 0.525 | 0.625 | 0.709 | 0.754 | 0.696 | 0.527 |
| NCI-H1395 | 0.394 | 0.427 | 0.383 | 0.319 | 0.384 | 0.489 | 0.452 | 0.382 | 0.313 | 0.267 | – | – | – | – | – | 0.672 | 0.635 | 0.535 | 0.379 | 0.473 |
| NCI-H1437 | 1.12 | 1.09 | 0.755 | 0.247 | 0.297 | 0.317 | 0.279 | 0.195 | 0.15 | 0.2 | 0.45 | 0.423 | – | 0.369 | 0.316 | 0.942 | 0.871 | 0.791 | 0.858 | 0.749 |

— the supplement of paper PMC10307832
